Experimental data: publication PMC12300679, “Taurine-Based Hybrid Drugs as Potential Anticancer Therapeutic Agents: In Vitro, In Vivo Evaluations” (Pharmaceuticals, 2025)

Tests used:
[1] = Acute in vivo toxicity, single intraperitoneal administration; conditions: mouse, ip, BDF1 mice, Behrens method, 14 d observation, read-out: half-lethal toxic dose (LD50)
Experimental: Firstly, acute in vivo toxicity was determined in order to calculate doses for the determination of the potential antileukemia activity. An acute toxicity study was carried out on the mice of the BDF1 line weighing from 20 to 24 g. In the experiment, clinically healthy animals were used, which were treated under the same conditions. To evaluate LD50, the toxicity gain curve was plotted against increasing doses (the Behrens method) (Figure 3).
Acute toxicity was evaluated using mice of the BDF1 line weighing from 20 to 24 g. In the experiment, clinically healthy animals treated under the same conditions were used. A total of 4–6 animals were used for each dose. All experiments on animals were carried out according to the Nursery and Vivarium, Russian Academy of Sciences Federal Research Center of Problems of Chemical Physics and Medicinal Chemistry (FRC PCPMC RAS) and in accordance with the rules established by the Commission on Bioethics of the FRC PCPMC RAS. One day after administration of the specimen, the animals were continuously treated for 4 h. Then, death of animals and clinical pattern of intoxication were evaluated once a day for 14 d. The test compounds were added intraperitoneally once. The individual volume of each animal was calculated from the mass of the body and dose of the test compound.
The lethal dose (LD100) for all animals and the maximum tolerable dose (MTD) values were also evaluated. Results of the studies are given in the form of tables and graphs.

[2] = test system: RPMI 1788 human healthy donor peripheral blood leukocytes; experiment: MTT cytotoxicity assay, normal RPMI 1788 cells; assay type: cell-based; conditions: tested at 1–200 µM, three independent experiments, read-out: IC50 RPMI 1788 (normal cell line)
[3] = test system: HL-60 human promyelocytic leukemia cells; experiment: MTT cytotoxicity assay, HL-60; assay type: cell-based; conditions: Homo sapiens, HL-60; MTT, tested at 1–200 µM, three independent experiments
[4] = test system: WI38 human fibroblast cell line; experiment: MTT cytotoxicity assay, normal WI38 cells; assay type: cell-based; conditions: WI-38, tested at 1–200 µM, three independent experiments
[5] = test system: M-HeLa human cervix carcinoma cells; experiment: MTT cytotoxicity assay, M-HeLa; assay type: cell-based; conditions: for IC50: Homo sapiens, M-HeLa, MTT, tested at 1–200 µM, three independent experiments
[6] = test system: HuTu 80 human duodenal adenocarcinoma cells; experiment: MTT cytotoxicity assay, HuTu 80; assay type: cell-based; conditions: for IC50: Homo sapiens, HuTu80, MTT, tested at 1–200 µM, three independent experiments
lymphatic leukemia P388 = experiment: Antitumor activity, syngeneic lymphatic leukemia P388 in BDF1 mice; assay type: in vivo, mouse; conditions: for ILS / MST ± SD: i.p. days 1, 5, 9; for antileukemia / antitumor effect (in words): doses under study, i.p.
Experimental: At the next stage, we evaluated them in vivo using syngeneic mouse leukosis P388, which plays an important role in the screening of potential antitumor agents. The antitumor effect of the synthesized compounds was evaluated according to the increase in the average lifespan (ILS, %) of tumor-bearing animals. Due to the fact that physiologically relevant solvent, such as water or physiological solution [49], can be used as a solvent for parenteral administration of substances, we chose only water-soluble compounds 4o–r for the in vivo study.
As model tumors for the determination of antitumor activity of phosphorus-containing derivatives of pyrrolidine, the strain of lymphatic leukemia P388 was chosen. Lymphatic leukemia P388 was transplanted into hybrid mice of the BDF1 line intraperitoneally in accordance with the standard procedure. The inoculum contained 10^6 tumor cells in isotonic solution of NaCl. […] In each experiment, the control group was represented by the cohort of animals with tumors not treated with the compounds. Each group consisted of six mice. The animals were inspected daily over at least 60 days. The effectiveness of therapy was evaluated by the number of surviving animals, as well as by the increase in the average lifespan (ILS%), which was evaluated as the percentage of the mean survival time (MST) of the treated group (t) as compared to the control group (c): […].

[7] = dose 12 (table prints no unit; b71 mg/kg)
[8] = dose 17 (table prints no unit; b71 mg/kg)
[9] = dose 27 (table prints no unit; b71 mg/kg)
[10] = dose 38 (table prints no unit; b71 mg/kg)
[11] = dose 57 (table prints no unit; b71 mg/kg)
[12] = dose 10 (table prints no unit; b71 mg/kg)
[13] = dose 15 (table prints no unit; b71 mg/kg)
[14] = dose 22 (table prints no unit; b71 mg/kg)
[15] = dose 31 (table prints no unit; b71 mg/kg)
[16] = dose 47 (table prints no unit; b71 mg/kg)

SMILES: Cl.O=P(c1ccccc1)(c1ccccc1)C1CCCN1S(=O)(=O)CCN1CCCC1 (stereo not drawn) [Compound 4q, 1-(2-((2-(Diphenylphosphoryl)pyrrolidin-1-yl)sulfonyl)ethyl)pyrrolidin-1-ium chloride]
- LD50 at 14 d [1]: 215 ± 16.7 mg/kg
- IC50 [2]: > 100 µM
- IC50 [3]: > 100 µM
- IC50 [4]: > 100 µM
- IC50 [5]: > 100 µM
- IC50 [6]: > 100 µM
- ILS (lymphatic leukemia P388; [7]): −9%
- MST ± SD (lymphatic leukemia P388; [7]): 8.3 ± 0.6 days
- ILS (lymphatic leukemia P388; [8]): 13%
- MST ± SD (lymphatic leukemia P388; [8]): 10.3 ± 0.9 days
- ILS (lymphatic leukemia P388; [9]): 33%
- MST ± SD (lymphatic leukemia P388; [9]): 12.2 ± 1.7 days
- ILS (lymphatic leukemia P388; [10]): 69%
- MST ± SD (lymphatic leukemia P388; [10]): 15.5 ± 3.9 days
- ILS (lymphatic leukemia P388; [11]): 11%
- MST ± SD (lymphatic leukemia P388; [11]): 10.2 ± 0.2 days
- antileukemia / antitumor effect (in words) (lymphatic leukemia P388): exhibited antileukemia activity

SMILES: Cl.O=P(c1ccccc1)(c1ccccc1)C1CCCN1S(=O)(=O)CCN1CCCCC1 (stereo not drawn) [Compound 4r, 1-(2-((2-(Diphenylphosphoryl)pyrrolidin-1-yl)sulfonyl)ethyl)piperidin-1-ium chloride]
- LD50 at 14 d [1]: 170 ± 12.1 mg/kg
- IC50 [2]: > 100 µM
- IC50 [3]: > 100 µM
- IC50 [4]: > 100 µM
- IC50 [5]: 96 ± 8.6 µM
- SI (selectivity index) M-HeLa ([5]; M-HeLa versus normal WI38 cells): >1
- IC50 [6]: 97.3 ± 8.2 µM
- SI (selectivity index) HuTu 80 ([6]; HuTu 80 versus normal WI38 cells): >1
- ILS (lymphatic leukemia P388; [12]): −9%
- MST ± SD (lymphatic leukemia P388; [12]): 9.8 ± 0.2 days
- ILS (lymphatic leukemia P388; [13]): −2%
- MST ± SD (lymphatic leukemia P388; [13]): 10.5 ± 0.8 days
- ILS (lymphatic leukemia P388; [14]): 4%
- MST ± SD (lymphatic leukemia P388; [14]): 11.2 ± 0.8 days
- ILS (lymphatic leukemia P388; [15]): 0%
- MST ± SD (lymphatic leukemia P388; [15]): 10.8 ± 0.7 days
- ILS (lymphatic leukemia P388; [16]): −1%
- MST ± SD (lymphatic leukemia P388; [16]): 10.7 ± 0.8 days
- antileukemia / antitumor effect (in words) (lymphatic leukemia P388): did not display antitumor effect
